Measurements: US8586973B2, “Host material for light-emitting diodes” (Solvay SA, priority 2008, dated 2013)

Test: Solubility tests in organic solvents
Assay type: physicochemical
Conditions: 20° C.; for Solubility S in chlorobenzene / Solubility S in toluene: 1 ml solvent, magnetic stirring
Method: The solubility tests were carried out at 20° C. by adding 1 ml of solvent to the suitable amount of compound powder in a sampling vial and under magnetic stirring.

Row | SMILES | Solubility S in chlorobenzene (molar) [mM] | Solubility S in chlorobenzene [mg/mL] | Solubility S in toluene (molar) [mM] | Solubility S in toluene [mg/mL]
1 | CC(C)[Si](c1ccc2c(c1)c1ccccc1n2-c1ccc(C2(c3ccc(-n4c5ccccc5c5cc([Si](C(C)C)(C(C)C)C(C)C)ccc54)cc3)c3ccccc3-c3ccccc32)cc1)(C(C)C)C(C)C [Compound IX, 9,9-Bis-[4-(3-Triisopropylsilylcarbazol)-phenyl]-fluorene] | > 59 | > 57 | > 49 | > 47
2 | COc1ccc(-n2c3ccc(-n4c5ccc([Si](C(C)C)(C(C)C)C(C)C)cc5c5cc([Si](C(C)C)(C(C)C)C(C)C)ccc54)cc3c3cc(-n4c5ccc([Si](C(C)C)(C(C)C)C(C)C)cc5c5cc([Si](C(C)C)(C(C)C)C(C)C)ccc54)ccc32)cc1 [Compound VI, 9′-(4-Methoxy-phenyl)-3,6,3″,6″-tetrakis-triisopropylsilanyl-9′-[9,3′;6′,9″]tercarbazole] | > 45 | > 55 |  | 
3 | COc1ccc(-n2c3ccc(-n4c5ccccc5c5cc([Si](C(C)C)(C(C)C)C(C)C)ccc54)cc3c3cc(-n4c5ccccc5c5cc([Si](C(C)C)(C(C)C)C(C)C)ccc54)ccc32)cc1 [Compound VII, 9-N-(4-Methoxy-phenyl)-3,6-Bis-[(3-Triisopropylsilylcarbazolyl)]carbazole] | > 62 | > 56 |  | 
4 | CC(C)[Si](c1ccc2c(c1)c1cc([Si](C(C)C)(C(C)C)C(C)C)ccc1n2-c1ccc(C2(c3ccc(-n4c5ccc([Si](C(C)C)(C(C)C)C(C)C)cc5c5cc([Si](C(C)C)(C(C)C)C(C)C)ccc54)cc3)c3ccccc3-c3ccccc32)cc1)(C(C)C)C(C)C [Compound IV, 9,9-Bis-(4-phenyl-3,6,3″,6″-tetrakis-triisopropylsilanyl-9′H-carbazole)-9H-fluorene] | > 42 | > 54 | > 31 | > 39
5 | CC(C)[Si](c1ccc2c(c1)c1ccccc1n2-c1ccc2c(c1)c1cc(-n3c4ccccc4c4cc([Si](C(C)C)(C(C)C)C(C)C)ccc43)ccc1n2-c1ccc(F)cc1)(C(C)C)C(C)C [Compound VIII, 9-N-(4-Fluoro-phenyl)-3,6-Bis-[(3-Triisopropylsilylcarbazolyl)]carbazole] | > 57 | > 51 |  | 
